Results reported in US5679782A, “Oligonucleotides encloding peptide inhibitors of urokinase receptor activity” (Chiron Corporation, priority 1995, dated 1997).
Read-outs that look alike come from different tables or passages of the source. Peptide text beside a SMILES is read from it.

How the values were obtained:
[1] = target: T1, human urokinase receptor (Homo sapiens, UniProt Q03405); assay: Competition of 125I-ATF binding to immobilized soluble recombinant human urokinase receptor; conditions: read-out: Affinity
T1 construct: expressed as a truncated, soluble molecule as described previously for mouse L-cells (Masucci et al., J Biol Chem (1991) 266:8655); made in house; host or cells: baculovirus / insect cells
T1 sequence (Q03405 23-299 limits assumed): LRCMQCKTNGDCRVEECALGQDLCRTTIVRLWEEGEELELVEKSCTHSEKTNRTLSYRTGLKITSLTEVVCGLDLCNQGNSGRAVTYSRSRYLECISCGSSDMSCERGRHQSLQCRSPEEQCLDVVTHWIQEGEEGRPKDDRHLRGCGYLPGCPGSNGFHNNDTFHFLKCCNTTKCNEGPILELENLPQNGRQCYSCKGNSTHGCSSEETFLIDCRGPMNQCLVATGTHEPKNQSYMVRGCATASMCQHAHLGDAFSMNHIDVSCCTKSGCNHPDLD
Description: 4.) The peptides encoded by 25 phage were then synthesized by solid phase peptide chemistry on an Applied Biosystems Model 430A peptide synthesizer,using Boc chemistry, or were obtained from Chiron Mimotopes, Ltd., as soluble peptides. All peptides contained the Ala-Glu dipeptide at the amino terminus and were amidated at the carboxy terminus.
Baculovirus-derived recombinant human urokinase receptor was expressed as a truncated, soluble molecule as described previously for mouse L-cells (Masucci et al., J Biol Chem (1991) 266:8655). The purified receptor was biotinylated with NHS-biotin, and immobilized at 1 μg/mL in PBS/0.1% BSA on streptavidin coated 96-well plates. Human uPA ATF (residues 1-135, obtained from M. Shuman, University of California, San Francisco) was iodinated using the Iodogen method (Pierce), and used as tracer. The ^125 I-ATF was incubated at 100-500 pM with increasing amounts of peptide from 1 nM to 10 μM in triplicate for 2 hours at room temperature in 0.1% BSA/PBS in a total volume of 200 μL. The plates were then washed 3 times with PBS/BSA, and the remaining bound radioactivity determined.
*Assay performed at 100 pM ATF, 0.3 μg/ml suPAR in 200 μL. Other
assays are corrected to these conditions; corrections are about 3 ×
from previous assay conditions.

[2] = target: uPAR (Homo sapiens, UniProt Q03405); conditions: Appella et al. 1987; cited from earlier work
Sequence of uPAR (Q03405 23-335, species assumed): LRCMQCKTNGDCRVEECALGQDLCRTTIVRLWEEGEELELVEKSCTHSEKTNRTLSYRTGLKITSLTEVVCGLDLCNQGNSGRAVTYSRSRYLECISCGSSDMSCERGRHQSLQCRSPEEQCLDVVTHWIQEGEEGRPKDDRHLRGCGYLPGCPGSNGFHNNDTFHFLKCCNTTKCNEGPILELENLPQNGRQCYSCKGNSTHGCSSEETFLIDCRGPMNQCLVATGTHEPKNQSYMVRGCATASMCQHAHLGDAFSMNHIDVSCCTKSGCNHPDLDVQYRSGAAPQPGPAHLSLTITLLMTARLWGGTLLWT

[3] = target: T2, huPAR (Homo sapiens, UniProt Q03405); assay: Recovery of phage on Sf9 cells expressing full length huPAR; format: binding; conditions: phage displaying the sequence; Sf9 cells expressing fluPAR
T2 construct: Sf9 cells expressing full length huPAR ("fluPAR", day 2 post infection); expressed in transfected cells; host or cells: Sf9 insect cells (day 2 post infection)
T2 sequence (Q03405 23-335): as the sequence (Q03405 23-335, species assumed) above
Method: 1.) 15mer phage (2.5×10^10) prepared as described above were selected by coincubation with 10^6 Sf9 cells expressing full length huPAR ("fluPAR", day 2 post infection) at room temperature for 60 minutes in Grace's medium with 2% nonfat milk. Binding phage were eluted with 6M urea (pH 2.2), the pH neutralized by adding 2M Tris-HCl, and assayed. The yield of binding phage was 0.0013% (3.3×10^5 pfu). The phage were amplified on solid agar plates as plaques, eluted with Tris-buffered saline, and precipitated with polyethylene glycol.
(§1) 3.) The phage selected in round 2 were reselected on Sf9 cells expressing fluPAR (day 2 post-infection) as described for round 1 (2.8×10^10 phage on 10^6 Sf9 cells). The yield of binding phage from this round was 5.40% (1.5×10^9 pfu), indicating a substantial enrichment in binding phage. Sample phage from the urea eluate were cloned, and their DNAs isolated and sequenced. Binding was assayed against Sf9 cells expressing fluPAR, and Sf9 cells expressing substance P receptor ("SPR," as a control).

[4] = target: T3, substance P receptor (SPR) (Homo sapiens, UniProt P25103); assay: Recovery of phage on Sf9 cells expressing substance P receptor (control); format: binding; conditions: phage displaying the sequence
T3 construct: expressed in transfected cells; host or cells: Sf9 insect cells
T3 sequence (P25103 whole entry, species assumed): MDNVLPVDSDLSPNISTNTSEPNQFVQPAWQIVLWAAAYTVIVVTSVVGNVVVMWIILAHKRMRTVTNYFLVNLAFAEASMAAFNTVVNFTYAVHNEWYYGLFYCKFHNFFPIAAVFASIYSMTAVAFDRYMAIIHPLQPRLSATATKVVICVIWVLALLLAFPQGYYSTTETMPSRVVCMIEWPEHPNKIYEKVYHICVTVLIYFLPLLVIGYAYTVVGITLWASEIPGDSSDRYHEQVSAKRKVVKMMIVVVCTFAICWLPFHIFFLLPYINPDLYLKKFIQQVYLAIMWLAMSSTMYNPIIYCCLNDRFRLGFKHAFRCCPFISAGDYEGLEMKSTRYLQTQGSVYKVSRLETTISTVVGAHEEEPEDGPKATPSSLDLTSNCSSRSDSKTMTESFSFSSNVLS
Method: as §1

[5] = unstarred values: corrected to 100 pM ATF, 0.3 μg/ml suPAR, corrections about 3 × from previous assay conditions

Compound: CC(C)C[C@H](NC(=O)[C@H](CCCNC(=N)N)NC(=O)[C@H](CC(C)C)NC(=O)[C@@H]1CCCN1C(=O)[C@H](Cc1ccccc1)NC(=O)[C@H](CCC(N)=O)NC(=O)[C@H](Cc1ccc(O)cc1)NC(=O)[C@H](CC(C)C)NC(=O)[C@H](CCC(N)=O)NC(=O)[C@H](Cc1c[nH]c2ccccc12)NC(=O)[C@H](CC(C)C)NC(=O)[C@@H](NC(=O)[C@@H]1CCCN1C(=O)[C@H](CCC(=O)O)NC(=O)[C@H](C)N)[C@@H](C)O)C(=O)N[C@@H](CO)C(=O)NCC(N)=O [compound 14] (H-AEPTLWQLYQFPLRLSG-NH2)
- Kd ([1]; starred values: assay performed at 100 pM ATF, 0.3 μg/ml suPAR in 200 μL): 4 µM

Compound: CSCC[C@H](NC(=O)[C@@H](NC(=O)[C@H](CC(N)=O)NC(=O)[C@H](CO)NC(=O)[C@H](CC(C)C)NC(=O)[C@H](Cc1ccccc1)NC(=O)[C@H](Cc1c[nH]c2ccccc12)NC(=O)[C@H](C)NC(=O)[C@H](CCC(=O)O)NC(=O)[C@H](C)N)[C@@H](C)O)C(=O)N[C@@H](CCCCN)C(=O)N[C@@H](C)C(=O)N[C@@H](CC(C)C)C(=O)N[C@@H](CO)C(=O)N[C@@H](C)C(=O)N[C@@H](CCCNC(=N)N)C(=O)N[C@@H](CC(C)C)C(N)=O [compound 13] (H-AEAWFLSNTMKALSARL-NH2)
- Kd [1, 5]: 5 µM

Compound: uPA12-32: The critical domain alone, residues 12-32 of uPA EGF-like domain (DCLNGGTCVSNKYFSNIHWCN; UniProt P00749 32-52, looked up, fragment)
- affinity fold less than intact ATF [2]: about 100 fold

Compound: 37 (AECLNGGTAVSNKYFSNIHWCN) [compound 37]
- % Recovery huPAR [3]: 6.8%
- % Recovery SPR [4]: 0.008%

Compound: CC(C)C[C@H](NC(=O)CNC(=O)[C@@H]1CCCN1C(=O)[C@H](Cc1c[nH]cn1)NC(=O)[C@H](Cc1c[nH]c2ccccc12)NC(=O)[C@H](CCC(=O)O)NC(=O)[C@H](C)N)C(=O)N[C@@H](CO)C(=O)N[C@@H](Cc1ccccc1)C(=O)NCC(=O)N[C@@H](CO)C(=O)N[C@@H](Cc1ccc(O)cc1)C(=O)N[C@@H](CC(C)C)C(=O)N[C@@H](Cc1c[nH]c2ccccc12)C(=O)N[C@@H](CO)C(=O)N[C@@H](CCCCN)C(=O)N[C@H](C(N)=O)[C@@H](C)O [compound 2] (H-AEWHPGLSFGSYLWSKT-NH2)
- Kd [1, 5]: 0.35 µM
